# Data reported in US7345192B2, “Reduction of hair growth” (The Gillette Company, priority 2005, dated 2008).
# Where two headings read alike, the source gives them in different places.
# What was measured:
# [1] = Protocol: The penetration studies were carried out using Franz chambers. Hamster skin (non-flank organ region) was clipped and appropriate size pieces then cut and mounted between the lower and upper Franz cell chambers. The lower and upper chambers (with the skin in between) were then securely clamped together. A small magnetic stir bar was placed in the bottom of each chamber, 80 μL of 100× sodium azide to a final concentration of 0.2% was added as an anti-microbial agent, then the lower chamber was filled with phosphate buffered saline (PBS). PBS is added until the level in the side arm is just level with the mounted skin, slightly inverting the cells as necessary to remove any air bubbles that might occur. The Franz chambers are then placed in the appropriate size heating blocks and allowed to stand overnight at room temperature. […] Similarly, 20-40 μL of a 1% test formulation was applied over 8-10 chambers. Four hundred μL of the receptor fluid from the lower chamber was removed at 2, 4, 6, 8, 24 and 50 hours and placed in a scintillation vial. This PBS was then replaced with 400 μL of fresh PBS.
# [2] = In vitro drug skin accumulation assay (tape-stripped skin after 50-hour diffusion); type: in vitro ADME, Hamster; details: for % Skin Deposition: skin after tape stripping of stratum corneum
# Protocol: The penetration studies were carried out using Franz chambers.
# After the 50-hour receiver fluid sample was taken, the diffusion set-up was dismantled. The skin section was mounted on a board and the stratum corneum skin layer was removed by tape stripping (3M Magic Tape 810). The section of the remaining skin exposed to the receiver fluid was isolated, placed in a vial containing 1 ml of Beckman Tissue Solubilizer-450, shaken for 4 days, and the resulting solution was assayed for the radiolabeled drug.
# [3] = Ionization constants by potentiometric titration; type: physicochemical
# Protocol: Although Schiff base formation is possible at both amino groups, sufficient selectivity can be achieved under buffered conditions or by terminating the reaction at an appropriate time. […] Three constants were obtained: pK1=0.084, pK2=6.437, pK3=10.393. Mono-conjugated Schiff base was prepared by reaction with a selected aldehyde or ketone under controlled buffer conditions.
smiles,measurement,setting,value
"NC(CCCN=Cc1ccccc1)(C(=O)O)C(F)F (centres unmarked) [B-DFMO, 2-amino-5-(benzylidene-amino)-2-difluoromethyl-pentanoic acid]",Initial Rate of Penetration,"[1]; hamster, 2 h, 1 % formulation",1.24 ± 1.16
same,Initial Rate of Penetration,"[1]; hamster, 4 h, 1 % formulation",1.65 ± 1.48
same,Initial Rate of Penetration,"[1]; hamster, 6 h, 1 % formulation",1.71 ± 1.50
same,Level of radiolabeled drug in the receptor fluid,"[1]; hamster, 24 h, 1 % formulation",10±1 % of the applied dose
same,"Skin penetration, % of applied dose after 24 hr","[1]; hamster, 24 h, 1 % formulation",9.63 ± 1.31 % of applied dose
same,Level of radiolabeled drug in the receptor fluid,"[1]; hamster, 50 h, 1 % formulation",16±3 % of the applied dose
same,Relative Deposition (fold increase over unconjugated DFMO),[2],7.4 fold
same,% Skin Deposition,[2],5.92 ± 4.0%
"NCCC[C@](N)(C(=O)O)C(F)F [DFMO, α-Difluoromethylornithine]",Ionization constant pK1,[3],0.084
same,Ionization constant pK2,[3],6.437
same,Ionization constant pK3,[3],10.393
"COC(=O)C(N)(CCCN)C(F)F (centres unmarked) [DFMO-OMe, 2,5-diamino-2-difluoromethyl-pentanoic acid methyl ester]",Rate of Penetration,"[1]; hamster, 4 h, 1 % formulation",0.23 ± 0.18
same,Rate of Penetration,"[1]; hamster, 6 h, 1 % formulation",0.21 ± 0.16
same,Rate of Penetration,"[1]; hamster, 24 h, 1 % formulation",0.2 ± 0.13
"CC(C)c1ccc(C=NCCCC(N)(C(=O)O)C(F)F)cc1 (centres unmarked) [IPB-DFMO, 2-amino-2-difluoromethyl-5-[(4-isopropyl-benzylidene)-amino]-pentanoic acid]","Skin penetration, % of applied dose after 24 hr","[1]; hamster, 24 h, 1 % formulation",3.31 ± 0.98 % of applied dose
"Cc1cc(C)c(C=NCCCC(N)(C(=O)O)C(F)F)c(C)c1 (centres unmarked) [M-DFMO, 2-amino-2-difluoromethyl-5-[(2,4,6-trimethyl-benzylidene)-amino]-pentanoic acid]","Skin penetration, % of applied dose after 24 hr","[1]; hamster, 24 h, 1 % formulation",6.68 ± 1.68 % of applied dose
"CC(C=NCCCC(N)(C(=O)O)C(F)F)=Cc1ccccc1 (centres unmarked) [MCA-DFMO, 2-amino-2-difluoromethyl-5-(2-methyl-3-phenyl-allylideneamino)-pentanoic acid]","Skin penetration, % of applied dose after 24 hr","[1]; hamster, 24 h, 1 % formulation",3.28 ± 0.88 % of applied dose
same,Relative Deposition (fold increase over unconjugated DFMO),[2],5.0 fold
same,% Skin Deposition,[2],4.00 ± 3.0%
"NC(CCCN=Cc1ccc2ccccc2c1)(C(=O)O)C(F)F (centres unmarked) [N-DFMO, 2-amino-2-difluoromethyl-5-[([…]aphthalene-2-ylmethylene)-amino]-pentanoic acid]","Skin penetration, % of applied dose after 24 hr",[1],3.91 ± 0.71 % of applied dose
"COc1cc(C=NCCCC(N)(C(=O)O)C(F)F)ccc1O (centres unmarked) [V-DFMO, 2-amino-2-difluoromethyl-5-[(4-hydroxy-3-methoxy-benzylidene)-amino]-pentanoic acid]","Skin penetration, % of applied dose after 24 hr","[1]; hamster, 24 h, 1 % formulation",3.34 ± 1.97 % of applied dose
same,Relative Deposition (fold increase over unconjugated DFMO),[2],1.2 fold
same,% Skin Deposition,[2],0.96 ± 0.6%
